Results on 21 compounds are retold here after patent US20250304587A1, “WEE1 INHIBITOR, PREPARATION THEREFOR AND USE THEREOF” (JIANGSU TASLY DIYI PHARMACEUTICAL CO., LTD., priority 2022, published 2025).

The structures appear in SMILES notation. pIC50: −log10 of the molar value.

Data set [1] concerns the target Wee1 protein (Homo sapiens (Human), UniProt P30291). Description: TR-FRET binding of compound to Wee1 protein and Tracer 178. The note with it: Tracer 178, read-out: IC50, inhibitory activity against Wee1 kinase. How it is done:
First, solutions of the compounds in different concentration gradients were prepared. The compounds were dissolved in DMSO and the compounds were diluted 4 folds with a total of 10 dose points and 2 parallel replicates for each concentration.
The IC50 for inhibition of enzyme activity by the compounds was then calculated using GraphPad Prism 6 and fitted with a log (inhibitor) vs. response-Variable slope mode. The fitting equation was: Y=Bottom+(Top−Bottom)/(1+10^((Log IC50−X)*HillSlope)), where Y represents the percentage of residual enzyme activity known and X represents the known concentration of compound after the logarithm.
In general terms: In TR-FRET formats the signal depends on donor and acceptor labels being close together.

For data set [2], the system named is OVCAR-3 cells. Briefly: Cell Titer-Glo anti-proliferation, OVCAR-3 cells. Format: cell-based. Particulars: 3 days, read-out: Anti-proliferative activity OVCAR-3 (IC50 class). The method, boiled down:
(§1)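 Each line was exposed to graded compound concentrations for 3 days at 37 °C, 5% CO2, with final DMSO at 0.2%. Viability was measured by Cell Titer-Glo luminescence, with untreated cells as the maximum and medium as the minimum signal. IC50 came from a variable-slope log(inhibitor)-response fit.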
In general terms: Cellular ATP, detected with luciferase, serves as a proxy for viable cell number.

The test system of data set [3] is HK2 cells. Description: Cell Titer-Glo anti-proliferation, normal cells HK2. Type of data set: cell-based. How it is done: (§2) Compound solutions of different concentration gradients were prepared. […] The cell growth group without compound was used as a positive control (maximum signal control) and the medium was used as a negative control (minimum signal control), while ensuring that the final level of DMSO in each reaction well was 0.2%. After removing the medium from the 384-well plate, 25 μl of the configured compound at different concentrations was transferred into the well plate and the compound and cells were incubated in the cell incubator at 37° C. with 5% CO2 for 3 days.
(§3) The 384-well plates were removed from the cell incubator and allowed to equilibrate for 1 h to room temperature. 25 μl of Cell Titer-Glo assay was added to each well, lysed on a shaker for 2 min and then read out (Luminescence) using a BMG PHERAStar after 10 min incubation. Calculate the inhibition rate from the luminescence signal.
(§4) to calculate the rate of inhibition of the cells by different concentrations of the compounds. The IC50 of the compound on cell activity inhibition was calculated by fitting a log(inhibitor) vs. response-Variable slope model to GraphPad Prism 6. The fitted equation was: Y=Bottom+(Top-Bottom)/(1+10^((Log IC50−X)*HillSlope)), where Y represents the rate of inhibition and X represents the concentration of the known compound after Log.
(§5) B. Evaluation of the Anti-Proliferative Effect of Compounds by the Cell Titer-Glo Method on Normal Cells HUVEC and HK2.
(§6) The test method is the same as the anti-proliferative activity evaluation of tumor cells.

The subject of data set [4] is HUVEC cells. Briefly: Cell Titer-Glo anti-proliferation, normal cells HUVEC. Type of data set: cell-based. How it is done: as §2, §3, §4, §5, §6
Data set [5] concerns HT-29 cells. Briefly: Cell Titer-Glo anti-proliferation, HT-29 cells. Type of data set: cell-based, human. The note with it: 3 days, read-out: Anti-proliferative activity HT-29 (IC50 class). In short, it runs like this:
as §1

Data set [6] relates to BxPC3 cells. Description: Cell Titer-Glo anti-proliferation, BxPC3 cells. Particulars: 3 days, read-out: Anti-proliferative activity BxPC3 (IC50 class). Format: cell-based, human. In short, it runs like this:
as §1

For data set [7], the system named is plasma protein. Briefly: Plasma protein binding (equilibrium dialysis), mouse. Particulars: mouse plasma, 1 μM, 5 h dialysis. (In equilibrium dialysis only unbound substance equilibrates across the membrane.)
Experimental: Sample preparation: The compound was dissolved in DMSO to a stock solution of 10 mM, then the compound was diluted with PBS to a secondary stock solution of 0.02 mM, and then the above 0.02 mM was diluted to 1 μM using blank plasma, which was the sample to be incubated.
Dialysis set-up preparation: 400 μL of blank PBS was first added to the white wells of the equilibrated dialysis plate and 200 μL of the configured plasma sample was added to the red wells, and the dialysis plate was sealed with a sealing film.
Recovery plate preparation: Two 96-well deep-well plates, labelled T0 and T5, were prepared and all plasma samples were added at n=2. 300 μL of acetonitrile (Verapamil-HCl, 4 ng/mL) was added directly to the TO plate, followed by 50 μL of blank PBS mix well for 5 min and left to stand in a 4° C. refrigerator until the end of the incubation.
Experimental Operation: The dialysis device and the T5 plate were incubated together for 5 h in a microplate thermostatic shaker (37° C., using 300 rpm or minimum speed). At the end of the incubation, 300 μL of acetonitrile (Verapamil-HCl, 4 ng/mL) was added and 50 μL of PBS solution was added. At the end of the dialysis incubation, a new 96-well deep well plate was taken. Add 50 μL of plasma well sample to the corresponding position of the 96-well plate, 300 μL of acetonitrile and 50 μL of blank PBS; take 50 μL of buffer well sample to the corresponding position of the 96-well plate, then add 300 μL of acetonitrile and 50 μL of blank plasma. Add 300 μL of acetonitrile (Verapamil-HCl, 4 ng/mL) to the plasma-containing wells of the T5 plate, and then 50 μL of PBS solution was added. Shake for 5 min to fully precipitate the proteins and centrifuge at 20,000 g for 10 min at 4° C. Add 200 μL of supernatant to 200 μL of pure water, mix well and perform LC-MS/MS analysis.
• Plasma protein binding rate=[(Rpe−Rb)/Rpe]×100% • Recovery=[(Rpe+Rb)/R5 h]×100% • Stability=(R5/R0)×100%
• Rpe=ratio of plasma-side testing sample peak area to internal standard • Rb=ratio of buffer side testing sample peak area to internal standard • R5=ratio of incubator stability sample peak area to internal standard • R0=ratio of refrigerator stability sample peak area to internal standard
The subject of data set [8] is Caco-2 cells. Description: Membrane permeability in Caco-2 model. Format: in vitro ADME. Particulars: for Efflux Ration: Caco2; for Papp A to B / Papp B to A: Caco2, 10 μM, 90 min. How it is done:
Caco-2 cells were purchased from the American Model Tissue Cell Collection (Rockville, MD). The cell culture medium was modified Eagle's medium (MEM) containing 10% inactivated fetal bovine serum and 1% non-essential amino acids. […] The cells were incubated for 21-28 days after inoculation for transport experiments and the apparent permeability (Papp) of Lucifer Yellow was used to characterize and verify the compactness of the cell monolayer. […] After the incubation, dilute the samples on the apical side and basolateral side, and the concentrations of compounds on the apical and basolateral sides were detected by LC-MS/MS, and the concentrations of the compounds were quantified by standard curve.

The target of data set [9] is hERG potassium channel (Homo sapiens (Human), UniProt Q12809). Briefly: hERG potassium channel inhibition, patch clamp in CHO hERG cells.
Sequence of hERG potassium channel (Q12809 whole entry): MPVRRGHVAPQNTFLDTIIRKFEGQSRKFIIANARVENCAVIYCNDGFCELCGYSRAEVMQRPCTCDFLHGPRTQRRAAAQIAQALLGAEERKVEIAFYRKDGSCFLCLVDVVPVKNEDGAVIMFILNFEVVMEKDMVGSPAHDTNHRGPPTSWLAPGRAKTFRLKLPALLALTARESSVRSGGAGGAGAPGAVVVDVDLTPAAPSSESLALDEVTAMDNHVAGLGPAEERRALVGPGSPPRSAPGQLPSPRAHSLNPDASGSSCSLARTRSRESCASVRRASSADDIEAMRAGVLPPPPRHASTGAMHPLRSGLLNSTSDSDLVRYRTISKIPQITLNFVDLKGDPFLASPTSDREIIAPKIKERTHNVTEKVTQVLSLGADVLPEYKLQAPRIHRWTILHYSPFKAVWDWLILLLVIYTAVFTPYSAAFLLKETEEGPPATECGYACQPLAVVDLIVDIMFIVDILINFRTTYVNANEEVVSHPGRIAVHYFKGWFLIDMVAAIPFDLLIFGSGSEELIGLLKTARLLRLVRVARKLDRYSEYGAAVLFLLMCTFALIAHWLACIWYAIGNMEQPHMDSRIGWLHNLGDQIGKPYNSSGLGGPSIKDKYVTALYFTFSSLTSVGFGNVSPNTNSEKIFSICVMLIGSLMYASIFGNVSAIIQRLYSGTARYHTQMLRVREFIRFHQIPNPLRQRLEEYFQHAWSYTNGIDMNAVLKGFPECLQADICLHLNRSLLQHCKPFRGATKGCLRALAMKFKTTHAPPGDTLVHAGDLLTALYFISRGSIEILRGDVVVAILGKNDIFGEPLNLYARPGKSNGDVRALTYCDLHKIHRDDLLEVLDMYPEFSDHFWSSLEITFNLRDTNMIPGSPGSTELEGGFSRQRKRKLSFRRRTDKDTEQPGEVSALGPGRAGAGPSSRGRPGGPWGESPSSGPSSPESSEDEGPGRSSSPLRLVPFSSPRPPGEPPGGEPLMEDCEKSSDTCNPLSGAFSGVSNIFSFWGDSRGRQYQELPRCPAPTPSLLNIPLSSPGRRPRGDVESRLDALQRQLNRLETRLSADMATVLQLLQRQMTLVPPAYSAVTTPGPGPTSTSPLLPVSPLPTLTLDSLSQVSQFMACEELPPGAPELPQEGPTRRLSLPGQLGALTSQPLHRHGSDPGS
Experimental: The cell line used for the patch clamp assay was a 10th generation CHO cell overexpressing hERG potassium channel cDNA. CHO hERG cells were cultured in Petri dishes or flasks at 37° C. in a 5% CO2 incubator. Cells were dropped onto circular slides 24-48 hours prior to electrophysiological experiments and cultured in cell culture medium and used for experiments after the cells had been adhered.
Cell culture medium (purchased from Invitrogen) Composition: • Ham's F12 medium • 10% (v/v) heat inactivated FBS • 100 μg/ml Hygromycin B (thaumatin) • 100 μg/ml Geneticin (Genomycin, G418)
Compound powders are dissolved in the extracellular solution and are subjected to a routine 5 to 10 minute sonication and shaking to ensure complete dissolution of the compound.
The final concentrations of compounds used for electrophysiological assays were 5, 20 μM and the final concentration of DMSO was 0.1%.
Cell membrane currents were recorded using a HEKA EPC-10 USB patch-clamp amplifier (HEKA Elektronik, Germany). • 1) A coverslip with a large number of uniformly growing individual CHO hERG cells on its surface was taken. Place in a continuous recording cell on an inverted microscope, perfused with extracellular fluid (approximately 1 ml per minute) and recorded continuously, waiting for the current to stabilize. • 2) Record HERG channel currents for individual cells using standard whole cell recording mode. The membrane voltage is first clamped at −80 mV and the cell is given a +20 mV stimulus for 5 s to activate the hERG potassium channel, then repolarized to −50 mV for 5 s to generate an outward tail current, which is continuously perfused until the current is stable, at which point the peak tail current is the control current value. • 3) The extracellular solution containing the drug to be tested was then perfused and recorded until the inhibitory effect of the drug on the hERG current reached a steady state, at which point the peak tail current was the post-drug current value. • 4) The cells are again perfused with the extracellular solution until the hERG current returns to or approaches the level prior to the addition of the drug, then the perfusion can be continued to test other concentrations or drugs. One or more compound or drug concentrations may be tested on each cell. • 5) Cisapride (C4740-10 mg, Sigma) is used as a positive control in the experiment to ensure that the cells used respond properly.

Sequence of Wee1 protein (P30291 whole entry): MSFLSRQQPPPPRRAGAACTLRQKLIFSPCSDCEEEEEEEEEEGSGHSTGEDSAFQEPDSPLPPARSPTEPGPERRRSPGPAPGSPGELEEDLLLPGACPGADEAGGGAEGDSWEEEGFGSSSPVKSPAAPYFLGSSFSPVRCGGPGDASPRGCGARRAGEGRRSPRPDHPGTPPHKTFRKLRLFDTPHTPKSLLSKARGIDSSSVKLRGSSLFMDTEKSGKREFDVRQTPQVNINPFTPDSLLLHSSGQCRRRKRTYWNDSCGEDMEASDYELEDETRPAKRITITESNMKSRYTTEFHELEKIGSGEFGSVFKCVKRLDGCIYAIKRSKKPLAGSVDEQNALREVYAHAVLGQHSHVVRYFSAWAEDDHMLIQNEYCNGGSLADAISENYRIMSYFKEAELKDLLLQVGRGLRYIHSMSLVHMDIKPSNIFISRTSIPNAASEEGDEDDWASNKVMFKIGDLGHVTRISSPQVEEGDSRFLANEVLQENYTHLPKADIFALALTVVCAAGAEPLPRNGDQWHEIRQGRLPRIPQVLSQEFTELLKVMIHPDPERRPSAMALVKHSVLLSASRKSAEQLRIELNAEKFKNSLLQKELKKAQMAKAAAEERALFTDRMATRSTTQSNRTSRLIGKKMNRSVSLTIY

For `C=CCn1c(=O)c2cnc(Nc3ccc(N4CCC5(CCN(C)CC5)CC4)c(C)c3)nc2n1-c1ccc2c(n1)[C@H](O)C1(CC2)CC1` (single isomer, unassigned) [Compound 61b], the pIC50 (commonly the negative decadic logarithm of the IC50, by convention in mol/L) is 8.00 to 8.30 in data set [1]; 6.00 to 7.00 in [2]; 6.31 in [3]; 5.35 in [4]; 6.00 to 7.00 in data set [5]; 6.00 to 7.00 in [6].

Regarding `C=CCn1c(=O)c2cnc(Nc3ccc(N4CCN(C)CC4)cc3)nc2n1-c1ccc2c(n1)C(O)C1(CC2)CC1` (stereo not shown) [Compound 4], the pIC50 in data set [1] was ≥ 8.30; in [2], 5.70 to 6.00; in [5], 6.00 to 7.00; in data set [6] it was 5.70 to 6.00.

Turning to `C=CCn1c(=O)c2cnc(Nc3ccc(N4CCN(C)CC4)cc3)nc2n1-c1ccc2c(n1)C(O)(CC)C1(CC2)CC1` (racemic) [Compound 21], the “Plasma Protein binding (PPB) Mouse” value in [7] came out at 98.86%. Moreover, the negative-log IC50 (pIC50) is 6.00 to 7.00 in data set [2], 6.00 to 7.00 in data set [5] and 5.70 to 6.00 in [6].

Consider `C=CCn1c(=O)c2cnc(Nc3ccc(N4CCC5(CCN(C)CC5)CC4)cc3)nc2n1-c1ccc2c(n1)[C@](C)(O)C1(CC2)CC1` (single isomer, unassigned) [Compound 44a], for which the pIC50 is ≥ 8.30 in [1], 6.44 in data set [3] and 5.99 in [4].

Consider `C=CCn1c(=O)c2cnc(Nc3ccc(N4CCN(C)CC4)cc3)nc2n1-c1ccc2c3c(n(CC)c2n1)OCCC3` [Compound 17], for which the pIC50 in data set [1] was ≥ 8.30; in [2], 6.00 to 7.00; in data set [5] it was 6.00 to 7.00; in [6], 5.70 to 6.00.

In the case of `C=CCn1c(=O)c2cnc(Nc3ccc(N4CCN(C)[C@@H](C)C4)cc3)nc2n1-c1ccc2c(n1)[C@@H](O)C1(CC2)CC1` (single isomer, unassigned) [Compound 56b], the pIC50 is 6.00 to 7.00 in [2]; 6.00 in data set [3]; < 5.00 in data set [4]; 6.00 to 7.00 in [5]; 6.00 to 7.00 in [6].

For the compound `[2H][C@]1(O)c2nc(-n3c4nc(Nc5ccc(N6CC7CC(C6)N7C(C)C)cc5)ncc4c(=O)n3CC=C)ccc2CCC12CC2` [Compound 39b], in data set [8], the “Efflux Ration” value was determined as 35.84, the “Papp A to B” value was 0.38 10^−6 cm/s and the “Papp B to A” value is given as 13.62 10^−6 cm/s. Also, in data set [9] (test concentration 5 μM), the “hERG Inhibition” value came to 47.26 ± 2.27%. In data set [9] (test concentration 20 μM), the “hERG Inhibition” value was 67.24 ± 1.32%.

`C=CCn1c(=O)c2cnc(Nc3ccc(N4CCC5(CCN(C)CC5)CC4)cc3)nc2n1-c1ccc2c(n1)[C@H](O)C1(CC2)CC1` [Compound 38b]: the pIC50 in data set [1] was 8.00 to 8.30; in data set [2], 6.00 to 7.00; in [5] it was 6.00 to 7.00; in [6] it was 6.00 to 7.00.

Take `C=CCn1c(=O)c2cnc(Nc3ccc(N4CCC(N(C)C)CC4)cc3)nc2n1-c1ccc2c(n1)[C@@](C)(O)C1(CC2)CC1` [Compound 65a]: the “Efflux Ration” value in data set [8] was determined as 9.55. The “Papp A to B” value in data set [8] is given as 0.96 10^−6 cm/s. Moreover, the “Papp B to A” value in data set [8] was 9.17 10^−6 cm/s. In addition, the pIC50 in [1] was 8.00 to 8.30; in data set [2], 6.00 to 7.00; in data set [3], 6.15; in data set [4] it was < 5.00; in data set [5], 6.00 to 7.00; in data set [6] it was 6.00 to 7.00.

Regarding `C=CCn1c(=O)c2cnc(Nc3ccc(N4CCN(C)CC4)cc3)nc2n1-c1ccc2c(n1)C(C)(O)C1(CC1)C2` (single isomer, unassigned) [Compound 3b], the “Efflux Ration” value in data set [8] was found to be 17.90. Moreover, the “Papp A to B” value in data set [8] is on record as 0.73 10^−6 cm/s. Moreover, the “Papp B to A” value in [8] is 13.07 10^−6 cm/s. The pIC50 in data set [2] is 6.00 to 7.00; in [5] it was 6.00 to 7.00; in data set [6], 5.70 to 6.00.

Turning to `C=CCn1c(=O)c2cnc(Nc3ccc(N4CCN(C)CC4)cc3)nc2n1-c1ccc2c(n1)[C@@H](O)C1(CC2)CC1` (single isomer, unassigned) [Compound 4a], the pIC50 in data set [1] is ≥ 8.30; in data set [2] it was 5.30 to 5.70; in data set [5], 5.70 to 6.00; in data set [6] it was 5.30 to 5.70.

Consider `C=CCn1c(=O)c2cnc(Nc3ccc(N4CCC(N(C)C)CC4)c(C)c3)nc2n1-c1ccc2c(n1)[C@@H](O)C1(CC2)CC1` (single isomer, unassigned) [Compound 41b], for which the pIC50 in data set [1] was ≥ 8.30; in data set [2] it was 6.00 to 7.00; in data set [3], 6.26; in [4], < 5.00; in data set [5] it was 6.00 to 7.00; in data set [6], 6.00 to 7.00.

Consider `C=CCn1c(=O)c2cnc(Nc3ccc(N4C[C@H]5CN(C)C[C@H]5C4)cc3)nc2n1-c1ccc2c(n1)C(O)(C(F)(F)F)C1(CC1)C2` (mixture of isomers) [Compound 55], for which the pIC50 is 6.00 to 7.00 in data set [2]; 6.03 in [3]; < 5.00 in data set [4]; 6.00 to 7.00 in data set [5]; 6.00 to 7.00 in data set [6].

On to `C=CCn1c(=O)c2cnc(Nc3ccc(N4CCC5(CCN(C)CC5)CC4)cc3)nc2n1-c1ccc2c(n1)[C@@H](O)C1(CC2)CC1` [Compound 37a], for which the pIC50 in data set [1] is 8.00 to 8.30; in data set [2] it was 6.00 to 7.00; in data set [5] it was 6.00 to 7.00; in data set [6] it was 6.00 to 7.00.

Regarding `C=CCn1c(=O)c2cnc(Nc3ccc(N4CCN(C(C)C)CC4)cc3)nc2n1-c1ccc2c(n1)[C@@H](O)C1(CC2)CC1` (single isomer, unassigned) [Compound 57b], the pIC50 in [2] was 6.00 to 7.00; in data set [3], 6.04; in [4] it was < 5.00; in [5], 6.00 to 7.00; in data set [6], 6.00 to 7.00.

In the case of `C=CCn1c(=O)c2cnc(Nc3ccc(N4CCN(C)[C@@H](C)C4)cc3)nc2n1-c1ccc2c(n1)C(O)(CC)C1(CC1)C2` (stereo partly shown) [Compound 30], the pIC50 in data set [1] is ≥ 8.30; in data set [2], 5.70 to 6.00; in data set [5], 6.00 to 7.00; in data set [6], 5.70 to 6.00.

As for `[2H][C@@]1(O)c2nc(-n3c4nc(Nc5ccc(N6CCC(N(C)C)CC6)c(C)c5)ncc4c(=O)n3CC=C)ccc2CCC12CC2` [Compound 41b], in [7], the “Plasma Protein binding (PPB) Mouse” value came to 96.26%.

Regarding `C=CCn1c(=O)c2cnc(Nc3ccc(N4CCC(N(C)C)CC4)c(C)c3)nc2n1-c1ccc2c(n1)[C@H](O)C1(CC2)CC1` (single isomer, unassigned) [Compound 48b], the pIC50 in data set [2], in data set [5] and in data set [6] was 6.00 to 7.00 each time. Besides, the “hERG Inhibition” value in data set [9] (test concentration 5 μM) is 73.67 ± 0.93%; in data set [9] (test concentration 20 μM), 90.92 ± 0.49%.

On to `C=CCn1c(=O)c2cnc(Nc3ccc(N4CC5CC(C4)N5C(C)C)cc3)nc2n1-c1ccc2c(n1)[C@H](O)C1(CC2)CC1` [Compound 39b], for which the pIC50 was 8.00 to 8.30 in data set [1]; 6.00 to 7.00 in data set [2]; 6.14 in [3]; < 5.00 in [4]; 6.00 to 7.00 in data set [5]; 6.00 to 7.00 in [6].

With `C=CCn1c(=O)c2cnc(Nc3ccc(N4CC5CC(C4)N5C)cc3)nc2n1-c1ccc2c(n1)C(C)(O)C1(CC2)CC1` (stereo not shown) [Compound 7], the pIC50 was ≥ 8.30 in data set [1], 6.00 to 7.00 in data set [2], 6.00 to 7.00 in data set [5] and 6.00 to 7.00 in [6]. Moreover, the “hERG Inhibition” value in [9] (test concentration 5 μM) worked out at 88.02 ± 3.87%; in [9] (test concentration 20 μM), 95.13 ± 1.06%.

As to `C=CCn1c(=O)c2cnc(Nc3ccc(N4CCN(C)CC4)cc3)nc2n1-c1ccc2c(n1)[C@@](C)(O)C1(CC2)CC1` [Compound 6a], the pIC50 in [1] is ≥ 8.30; in [2] it was 6.00 to 7.00; in data set [5], 6.00 to 7.00; in data set [6], 5.70 to 6.00.
